Data as given in patent US12121510B2 (Cedars-Sinai Medical Center, priority 2016, dated 2024).
Where two headings read alike, the source gives them in different places. Each block holds one molecule with its values, some of them ahead of it.

Key:
22Rv1 = test: Cancer cell growth IC50 (crystal violet); type: cell-based, human; settings: Example 13, 72 h
Description: (§1) Exemplary Embodiments are generally performed as follows, unless otherwise noted. Simvastatin is purchased from Ark Pharm, Inc. (Arlington Heights, IL). Cisplatin (CIS) is purchased from MedKoo Biosciences, Inc. (Chapel Hill, NC). Dihydroartemisinin is purchased from TCI America (Portland, OR). All other chemicals and reagents are purchased from standard sources such as Sigma-Aldrich and/or VWR and are of highest quality available. Puromycin dihydrochloride was purchased from Alfa Aesar (Tewksbury, MA). Deionized water ([…]) used for making solutions is obtained from Milli-Q Direct Ultrapure Water System from Millipore (Billerica, MA, USA). All intermediates are characterized by 1H NMR and mass analysis and the purity of compounds are analyzed by HPLC. 1H NMR data are collected on Bruker 400 MHz spectrometers using standard parameters; chemical shifts are reported in ppm (δ) in reference to residual non-deuterated solvent. ESI mass spectroscopy analysis is performed using a Thermo Fisher LTQ Orbitrap Elite system. IC50 is the half maximal inhibitory concentration and determined is determined by crystal violet assay unless otherwise noted.
(§2) The crystal violet assay is performed as follows, unless otherwise noted. Cell lines are supplemented with RPMI 1640 medium, 10% fetal bovine serum, 1% PenStrep, and placed in a humidified atmosphere containing 5% CO2 at 37° C. 5,000 cells/well renal cancer cells and 10,000 cells/well lymphoma cells are seeded in 96 well plates in 100 microliter medium/per well for 24 h. […] Renal cancer cells are fixed with 3.7% paraformaldehyde for 15 minutes and are stained with Crystal violet solution (0.5% in 25% methanol) for 30 minutes. After rinsing with water cell layers are dried and decolorized with Sorenson citrate with shaking for 20 minutes. Light absorption of the extracted supernatant is read at 595 nm. Lymphoma cell growth was evaluated using MTT and cells are incubated for 4 hours. 100 microliters of isopropanol is added, and the extracted supernatant fraction is read at absorption maximum of 595 nm. […]

ARCaP-E = test: Cancer cell growth IC50 (crystal violet); type: cell-based; settings: Example 13, 72 h
Description: as §1
(§3) The crystal violet assay is performed as follows, unless otherwise noted. Cell lines are supplemented with RPMI 1640 medium, 10% fetal bovine serum, 1% PenStrep, and placed in a humidified atmosphere containing 5% CO2 at 37° C. 5,000 cells/well renal cancer cells and 10,000 cells/well lymphoma cells are seeded in 96 well plates in 100 microliter medium/per well for 24 h. […] Renal cancer cells are fixed with 3.7% paraformaldehyde for 15 minutes and are stained with Crystal violet solution (0.5% in 25% methanol) for 30 minutes. After rinsing with water cell layers are dried and decolorized with Sorenson citrate with shaking for 20 minutes. Light absorption of the extracted supernatant is read at 595 nm. Lymphoma cell growth was evaluated using MTT and cells are incubated for 4 hours. 100 microliters of isopropanol is added, and the extracted supernatant fraction is read at absorption maximum of 595 nm.
(§4) Standard cell culture conditions typically are RPMI 1640 medium, 10% fetal bovine serum, 1% PenStrep, and are performed in a humidified atmosphere containing 5% CO2 at 37° C. Generally, 5,000 cells/well-10,000 cells/well are seeded in 96 well plates in 100 microliter medium/per well for 24 h, or as described in Example 16, unless otherwise noted. Certain cells require specialized media, growth factors, antibiotics, or culture condition adjustments, as will be apparent to a person of ordinary skill in the art.

C4-2 = test: Cancer cell growth IC50 (crystal violet); type: cell-based; settings: Example 13, C42, 72 h
Description: as §1, §3, §4

LNCaP = test: Cancer cell growth IC50 (crystal violet); type: cell-based; settings: Example 13, 72 h
Description: as §1, §3, §4

MCF-7 = test: Cancer cell growth IC50 (crystal violet); type: cell-based
Description: as §1, §3, §4

PC3M = test: Cancer cell growth IC50 (crystal violet); type: cell-based; settings: Example 13, 72 h
Description: as §1, §3, §4

U87 = test: Cancer cell growth IC50 (crystal violet); type: cell-based; settings: Example 13, 72 h
Description: as §1, §3, §4

PC3 = test: Cancer cell growth IC50 (crystal violet); type: cell-based
Description: as §1, §3, §4

C4-2B = test: Cancer cell growth IC50 (crystal violet); type: cell-based
Description: as §1, §3, §4

MIAPaCa II = test: Cancer cell growth IC50 / sensitization (crystal violet); type: cell-based
Description: as §1, §2

Raji = test: Lymphoma cell growth IC50 (MTT); type: cell-based, human; settings: Example 13, 72 h, read-out: IC50
Description: as §1, §3, §4
(§5) Cell lines are cultured as follows. […] 5,000 cells/well renal cancer cells and 10,000 cells/well lymphoma cells are seeded in 96 well plates in 100 microliter medium/per well for 24 h. […] Renal cancer cells are fixed with 3.7% paraformaldehyde for 15 minutes and are stained with Crystal violet solution (0.5% in 25% methanol) for 30 minutes. After rinsing with water cell layers are dried and decolorized with Sorenson citrate with shaking for 20 minutes. Light absorption of the extracted supernatant is read at 595 nm. Lymphoma cell growth is evaluated using MTT and cells are incubated for 4 hours. 100 microliters of isopropanol is added, and the extracted supernatant fraction is read at absorption maximum of 595 nm.

Daudi = test: Lymphoma cell growth IC50 (MTT); type: cell-based, human; settings: Example 13, 72 h, read-out: IC50
Description: as §1, §3, §4, §5

Namalwa = test: Lymphoma cell growth IC50 (MTT); type: cell-based, human
Description: as §1, §3, §4, §5

Ramos = test: Lymphoma cell growth IC50 (MTT); type: cell-based, human; settings: Example 13, 72 h, read-out: IC50
Description: as §1, §3, §4, §5

[1] = test system: Ramos, a B-cell lymphoma, cultured as 3-D spheroids; test: Cell viability IC50 in 3-D spheroids; type: cell-based, human; settings: for IC50: Homo sapiens, Ramos 3-D spheroids, single agent
Description: as §1
Cancer cells were Ramos, a B-cell lymphoma, cultured as 3-D spheroids, cultured according to their standard culturing conditions.

CTC 752-S-1 = test: Circulating tumor cell growth IC50 / sensitization; type: cell-based, human; settings: for IC50: Homo sapiens, Example 23, CTC 752-S-1
Description: as §1, §4
Pancreatic cancer cells are cultured for 72 hours in vitro and exposed to the conventional chemotherapeutic drugs Gemcitabine (GEM) and Paclitaxel (PAC), known to inhibit pancreatic cancer growth in patients. GEM (or PAC) alone are compared to a combination with SIM, or a combination with DZ-SIM. […] Representative results are illustrated in the graphs in FIG. 3.
Cells are cultured according to their standard culturing conditions, and IC50s are determined as described herein-above.
Representative results of the determined IC50s are shown in the table below for the indicated cancer cells cultured in vitro, including CTCs (C752-S-1), B-Cell Lymphoma (Namalwa), prostate cancer cells (C4-2B), and renal cancer cells (Caki-1). The cells are cultured according to their standard culturing conditions, and IC50s are determined as described herein-above.

Caki-1 = test: Renal cancer cell growth IC50 (crystal violet); type: cell-based, human; settings: Homo sapiens; Example 23; Caki-1; read-out: IC50
Description: as §1, §3, §4, §5

22Rv1 tumors = test: Prostate tumor xenograft growth; type: in vivo, mice; settings: IP twice per week, 37 days; SIM 1.1 mg/kg, DZ-SIM 5.5 mg/kg, DT 8 mg/kg
Procedure: A human prostate tumor xenograft model, 22Rv1 in immune compromised mice, is employed as follows. 1×10^6 freshly harvested cells of a cultured human prostate carcinoma cell line, 22Rv1, are inoculated s.q. in mice. Mice bearing 22Rv1 tumors (10 tumors/group) are randomized into 7 groups on day-1, and administered drugs by IP (intraperitoneally) at the next day (day-2), and subsequently twice per week, using the following drugs and dosages: a control/vehicle (V, i.e. no drug), DZ (5 μM or 3.9 mg/kg, calculated based on the body weight of mice which averaged 20 grams), SIM (5 μM or 1.1 mg/kg), DZ-SIM (5 μM or 5.5 mg/kg), docetaxel (DT, 8 mg/kg), SIM+DT (drug doses as indicated), and DZ-SIM+DT (drug doses as indicated). Administration is continued for a total of 37 days, and tumor volumes are measured at the indicated times (see FIG. 4). […] Thus therapeutically resistant prostate tumors can be rendered sensitive by DZ-SIM but not SIM.

NKPC-961 = test: Sensitization of pancreatic cancer cells to CIS and GEM; type: cell-based, mouse
Description: GEM (or PAC) alone are compared to a combination with SIM, or a combination with DZ-SIM.

A549 or A549/DDP cells = test: CIS IC50 with constant DZ-SIM ester or amide, Crystal Violet assay; type: cell-based, human; settings: 72 h
Procedure: Cell proliferation is determined by a Crystal Violet assay. The data represent the mean+/−SEM for two assays done in quadruplicate.

[2] = Homo sapiens, Example 23, read-out: IC50

IC50 (22Rv1; Homo sapiens): 3.52 µM | IC50 (ARCaP-E): 5.61 µM | IC50 (C4-2; C4-2): 7.73 µM | IC50 (LNCaP; Homo sapiens): 3.76 µM | IC50 (MCF-7; Homo sapiens, MCF7, Example 13, 72 h): 2.69 µM | IC50 (PC3M; Homo sapiens, PC-3M): 0.248 µM | IC50 (U87; Homo sapiens, U-87 MG): 0.506 µM | IC50 (PC3; Homo sapiens, PC-3, Example 13, 72 h): 0.991 µM | IC50 (C4-2B; Example 13, 72 h): 1.88 µM | IC50 (Raji; Homo sapiens): 32.5 µM | IC50 (Daudi; Homo sapiens): 15 µM | IC50 (Namalwa; Homo sapiens, Example 13, 72 h, read-out: IC50): 13.4 µM | IC50 (Ramos; Homo sapiens): 13 µM | IC50 ([1]; 72 h): 13 µM
SMILES: CCC(C)(C)C(=O)O[C@H]1C[C@@H](C)C=C2C=C[C@H](C)[C@H](CC[C@@H]3C[C@@H](O)CC(=O)O3)[C@H]21 [SIM, Simvastatin]
IC50 (MIAPaCa II; MIA PaCa-2, Example 13, 72 h): 0.592 µM

IC50 (Caki-1): > 64 µM | IC50 (C4-2B; Example 23): 1.32 µM | IC50 (Namalwa; [2]): 22.4 µM
SMILES: COc1ccc(C[C@H](NC(=O)CCCCCN2/C(=C/C=C3\CCCC(/C=C/C4=[N+](CCCCS(=O)(=O)[O-])c5ccccc5C4(C)C)=C3Cl)C(C)(C)c3ccccc32)C(=O)NC2C(CO)OC(n3cnc4c(N(C)C)ncnc43)C2O)cc1 (stereo partly shown) [DZ-Puromycin]
IC50 (CTC 752-S-1): 31.4 µM

SMILES: CC(=O)O[C@@]12CO[C@@H]1C[C@H](O)[C@@]1(C)C(=O)[C@H](O)C3=C(C)[C@@H](OC(=O)[C@H](O)[C@@H](NC(=O)OC(C)(C)C)c4ccccc4)C[C@@](O)([C@@H](OC(=O)c4ccccc4)[C@H]21)C3(C)C [DT, Docetaxel]
Growth of 22Rv1 tumors in vivo (tumor volume) (22Rv1 tumors): ineffective

IC50 (Caki-1): > 64 µM | IC50 (C4-2B; Example 23): 0.206 µM | IC50 (Namalwa; [2]): 6.23 µM
SMILES: COc1cccc2c1C(=O)c1c(O)c3c(c(O)c1C2=O)C[C@@](O)(C(=O)CO)C[C@@H]3O[C@H]1C[C@H](NC(=O)CCCCCN2/C(=C/C=C3\CCCC(/C=C/C4=[N+](CCCCS(=O)(=O)[O-])c5ccccc5C4(C)C)=C3Cl)C(C)(C)c3ccccc32)[C@@H](O)[C@H](C)O1 [DZ-Doxorubicin]
IC50 (CTC 752-S-1): 3.41 µM

IC50 (22Rv1): 4.9 µM | IC50 (ARCaP-E): 4.76 µM | IC50 (C4-2): 4.26 µM | IC50 (LNCaP): 1.79 µM | IC50 (MCF-7; Example 13, 72 h): 9.9 µM | IC50 (PC3M): 5.19 µM | IC50 (U87): 1.32 µM | IC50 (PC3; Example 13, 72 h): 7.15 µM | IC50 (C4-2B; Example 13, 72 h): 1.81 µM | Reduction of the IC50 of CIS by combination (A549 or A549/DDP cells): up to 200 fold | IC50 (Raji): 8.8 µM | IC50 (Daudi): 5.61 µM | IC50 (Namalwa; Example 13, 72 h, read-out: IC50): 7.15 µM | IC50 (Ramos): 2.74 µM | IC50 ([1]; 72 h): 2.74 µM
SMILES: CCC(C)(C)C(=O)O[C@H]1C[C@@H](C)C=C2C=C[C@H](C)[C@H](CC[C@@H]3C[C@@H](OC(=O)CCCCCN4/C(=C/C=C5\CCCC(/C=C/C6=[N+](CCCCS(=O)(=O)[O-])c7ccccc7C6(C)C)=C5Cl)C(C)(C)c5ccccc54)CC(=O)O3)[C@H]21 [DZ-SIM ester]
Sensitization to GEM or PAC (CTC 752-S-1; CTC-752-S-1 human pancreatic cancer cells, 72 hours): more effective sensitizer to GEM or PAC than SIM | Sensitization to CIS and GEM (NKPC-961): about equally sensitize | IC50 (MIAPaCa II; Example 13, 72 h): 2.12 µM | Sensitization of cancer cells to CIS (A549 or A549/DDP cells; combination with CIS): sensitize cancer cells to CIS | Growth of 22Rv1 tumors in vivo (tumor volume) (22Rv1 tumors): inhibited the growth of tumors in vivo | Increase of CIS cytotoxicity ([1]; Ramos, 2 μM DZ-SIM ester): over 190 fold | Potency relative to SIM ([1]; Ramos, 72 h): 5 fold
